The test system of test [1] is Calpain activity in SH-SY5Y cells (SBDP-150). As to the kind of experiment: SH-SY5Y Spectrin western blot assay (SBDP-150 breakdown product, A23187-induced). The class given is cell-based. The settings on record: Homo sapiens, SH-SY5Y cells, read-out: SH-SY5Y Spectrin IC50. On the technique in general: Immunoblotting shows a protein as a band on a membrane.
The target of a further test is T1, Human Calpain 1/NS1 (Homo sapiens, UniProt P07384).
T1 sequence (P07384 1-714): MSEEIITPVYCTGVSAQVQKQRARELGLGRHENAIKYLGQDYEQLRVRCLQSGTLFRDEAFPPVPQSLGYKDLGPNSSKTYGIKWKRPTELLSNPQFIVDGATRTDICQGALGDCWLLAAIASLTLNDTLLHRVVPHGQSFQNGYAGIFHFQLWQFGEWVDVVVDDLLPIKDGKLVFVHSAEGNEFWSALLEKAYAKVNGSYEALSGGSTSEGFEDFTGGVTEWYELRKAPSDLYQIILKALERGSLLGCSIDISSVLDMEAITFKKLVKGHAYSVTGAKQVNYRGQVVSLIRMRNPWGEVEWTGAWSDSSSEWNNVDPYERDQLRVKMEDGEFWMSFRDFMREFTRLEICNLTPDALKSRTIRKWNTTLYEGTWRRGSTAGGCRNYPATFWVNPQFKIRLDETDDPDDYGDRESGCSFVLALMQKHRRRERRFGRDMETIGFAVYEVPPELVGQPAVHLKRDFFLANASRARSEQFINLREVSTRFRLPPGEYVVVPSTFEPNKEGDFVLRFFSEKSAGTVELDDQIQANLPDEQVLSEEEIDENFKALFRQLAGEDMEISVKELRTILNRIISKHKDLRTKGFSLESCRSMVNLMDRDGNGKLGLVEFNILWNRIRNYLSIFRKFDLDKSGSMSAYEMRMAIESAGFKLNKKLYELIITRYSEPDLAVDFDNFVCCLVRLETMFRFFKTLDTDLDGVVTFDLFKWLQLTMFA
T1 sequence (P04632 1-268 partner): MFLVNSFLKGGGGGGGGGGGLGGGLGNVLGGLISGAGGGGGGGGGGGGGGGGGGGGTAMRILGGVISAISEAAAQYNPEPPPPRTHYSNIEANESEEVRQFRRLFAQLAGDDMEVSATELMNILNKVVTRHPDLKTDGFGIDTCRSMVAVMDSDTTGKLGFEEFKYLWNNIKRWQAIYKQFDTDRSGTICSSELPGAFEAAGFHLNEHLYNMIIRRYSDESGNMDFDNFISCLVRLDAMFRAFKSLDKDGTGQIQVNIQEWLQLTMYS
In words: Calpain inhibition continuous fluorescence (FRET) assay, Human Calpain 1/NS1. The format is biochemical. The settings on record: read-out: Human Calpain 1/NS1 IC50. Summed up: (§1)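 Continuous FRET read (ex 490/em 520 nm, 10 min) of calpain 1, 2 or 9 cleaving an internally quenched 5-FAM peptide, triggered by substrate with CaCl2 after enzyme–inhibitor incubation at ambient 25 °C, pH 7.5 Tris/NaCl/DTT buffer. IC50 from initial rates (1-5 min) via 4-parameter fit.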

For another test, the target named is T2, Human Calpain 9/NS1 (Homo sapiens, UniProt O14815).
T2 sequence (O14815 1-690): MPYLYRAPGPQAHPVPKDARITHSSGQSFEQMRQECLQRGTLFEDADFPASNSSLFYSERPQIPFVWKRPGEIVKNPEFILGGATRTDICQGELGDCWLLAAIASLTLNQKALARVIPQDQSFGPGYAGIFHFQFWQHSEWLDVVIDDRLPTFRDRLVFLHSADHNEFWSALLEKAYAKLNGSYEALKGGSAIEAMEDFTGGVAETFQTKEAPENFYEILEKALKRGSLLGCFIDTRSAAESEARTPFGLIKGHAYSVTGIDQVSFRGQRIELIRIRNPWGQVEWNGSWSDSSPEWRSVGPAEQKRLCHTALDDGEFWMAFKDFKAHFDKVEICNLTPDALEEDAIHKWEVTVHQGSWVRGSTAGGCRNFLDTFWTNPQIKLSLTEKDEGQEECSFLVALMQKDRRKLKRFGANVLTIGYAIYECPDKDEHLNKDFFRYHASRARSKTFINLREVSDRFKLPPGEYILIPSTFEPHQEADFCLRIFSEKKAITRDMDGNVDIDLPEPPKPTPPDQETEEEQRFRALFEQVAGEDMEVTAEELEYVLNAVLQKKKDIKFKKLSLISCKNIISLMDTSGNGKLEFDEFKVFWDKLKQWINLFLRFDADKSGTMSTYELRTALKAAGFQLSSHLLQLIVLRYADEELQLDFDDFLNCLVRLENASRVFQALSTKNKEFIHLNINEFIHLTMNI
T2 sequence (P04632 1-268 partner): T1 sequence (P04632 1-268 partner)
As to the kind of experiment: Calpain inhibition continuous fluorescence (FRET) assay, Human Calpain 9/NS1. The format is biochemical. The settings on record: read-out: Human Calpain 9/NS1 IC50. The method in brief:
as §1

The subject of test [2] is Calpain activity in SH-SY5Y cells. As to the kind of experiment: SH-SY5Y + AMC fluorescence assay (Suc-LLVY-AMC substrate). The format is cell-based. The settings on record: read-out: SH-SY5Y + AMC IC50.
The target in the next test is T3, Human Calpain 2/NS1 (Homo sapiens, UniProt P17655).
T3 sequence (P17655 1-700): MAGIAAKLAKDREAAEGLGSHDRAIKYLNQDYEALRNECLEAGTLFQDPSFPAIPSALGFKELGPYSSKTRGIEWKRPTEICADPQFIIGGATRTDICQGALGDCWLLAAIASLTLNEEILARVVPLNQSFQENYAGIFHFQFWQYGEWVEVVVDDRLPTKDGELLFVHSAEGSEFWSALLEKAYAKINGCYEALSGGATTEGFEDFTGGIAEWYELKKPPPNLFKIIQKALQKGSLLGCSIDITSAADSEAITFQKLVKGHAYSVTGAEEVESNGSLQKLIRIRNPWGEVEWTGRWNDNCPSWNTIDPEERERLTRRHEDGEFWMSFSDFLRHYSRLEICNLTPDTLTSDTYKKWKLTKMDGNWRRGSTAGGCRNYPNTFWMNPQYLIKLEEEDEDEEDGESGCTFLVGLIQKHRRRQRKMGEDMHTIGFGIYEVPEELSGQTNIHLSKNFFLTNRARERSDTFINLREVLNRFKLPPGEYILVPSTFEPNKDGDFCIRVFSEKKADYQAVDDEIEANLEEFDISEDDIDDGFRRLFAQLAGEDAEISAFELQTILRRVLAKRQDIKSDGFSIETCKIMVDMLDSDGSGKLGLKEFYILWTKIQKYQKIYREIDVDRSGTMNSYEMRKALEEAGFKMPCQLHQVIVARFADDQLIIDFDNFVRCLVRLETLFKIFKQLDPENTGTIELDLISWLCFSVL
T3 sequence (P04632 1-268 partner): T1 sequence (P04632 1-268 partner)
In words: Calpain inhibition continuous fluorescence (FRET) assay, Human Calpain 2/NS1. The format is biochemical. The settings on record: read-out: Human Calpain 2/NS1 IC50. The method in brief:
as §1

Where [3] appears, read: A23187-induced SBDP-150, western blot.
[4] abbreviates: Column D, A23187-induced SBDP-150.

pIC50: −log10 of the molar value. Where two headings read alike, the source gives them in different places.

As for `Cc1cc(C)cc(-c2nn(C(F)F)cc2C(=O)NC(Cc2ccccc2)C(=O)C(N)=O)c1` (stereo not drawn) [Compound 565, N-(4-amino-3,4-dioxo-1-phenylbutan-2-yl)-1-(difluoromethyl)-3-(3,5-dimethylphenyl)-1H-pyrazole-4-carboxamide], the pIC50 in test [1] (setting [3]) is more than 5.00; at Human Calpain 1/NS1, more than 5.52; on Human Calpain 9/NS1, more than 5.52; in test [2] it was less than 4.60; on Human Calpain 2/NS1, more than 5.52.
In the case of `Cc1nc(-c2cccc(F)c2F)c(C(=O)NC(Cc2ccccc2)C(=O)C(N)=O)o1` (stereo not drawn) [Compound 361, N-(4-amino-3,4-dioxo-1-phenylbutan-2-yl)-4-(2,3-difluorophenyl)-2-methyloxazole-5-carboxamide], the pIC50 in test [1] (setting [3]) was more than 5.00; at Human Calpain 1/NS1 it was more than 5.52; at Human Calpain 9/NS1, more than 5.52; in test [2] it was more than 5.00; at Human Calpain 2/NS1, more than 5.52.
As for `Cn1cc(C(=O)N[C@@H](Cc2ccccc2)C(=O)C(N)=O)c(-c2ccc(F)cc2)n1` [Compound 179, (S)—N-(4-amino-3,4-dioxo-1-phenylbutan-2-yl)-3-(4-fluorophenyl)-1-methyl-1H-pyrazole-4-carboxamide], the pIC50 in test [1] (setting [4]) was 4.60 to 5.00; at Human Calpain 1/NS1 (Column A), more than 5.52; at Human Calpain 9/NS1 (Column C), more than 5.52; in test [2] (Column E) it was less than 4.60; at Human Calpain 2/NS1 (Column B), more than 5.52.
As to `Cc1cc(C(=O)N[C@@H](Cc2ccccc2)C(=O)C(N)=O)n(-c2ccc(CNS(=O)(=O)c3ccccc3)cc2)n1` [Compound 156, (S)—N-(4-amino-3,4-dioxo-1-phenylbutan-2-yl)-3-methyl-1-(4-(phenylsulfonamidomethyl)phenyl)-1H-pyrazole-5-carboxamide], the pIC50 in test [1] (setting [4]) is more than 5.00; on Human Calpain 1/NS1 (Column A) it was more than 5.52; at Human Calpain 9/NS1 (Column C) it was more than 5.52; in test [2] (Column E) it was less than 4.60; at Human Calpain 2/NS1 (Column B), more than 5.52.
In the case of `Cc1cc(C(=O)N[C@@H](Cc2ccccc2)C(=O)C(N)=O)n(-c2cccc(-c3ccccc3)c2)n1` [Compound 16, (S)-1-([1,1′-biphenyl]-3-yl)-N-(4-amino-3,4-dioxo-1-phenylbutan-2-yl)-3-methyl-1H-pyrazole-5-carboxamide], the pIC50 in test [1] (setting [4]) was 4.60 to 5.00; at Human Calpain 1/NS1 (Column A), more than 5.52; at Human Calpain 9/NS1 (Column C), more than 5.52; in test [2] (Column E), 4.60 to 5.00; at Human Calpain 2/NS1 (Column B) it was more than 5.52.
For the compound `Cn1cc(C(=O)N[C@@H](Cc2ccccc2)C(=O)C(=O)NCCC(N)=O)c(-c2ccccc2)n1` [Compound 338, (S)—N-(4-((3-amino-3-oxopropyl)amino)-3,4-dioxo-1-phenylbutan-2-yl)-1-methyl-3-phenyl-1H-pyrazole-4-carboxamide], the pIC50 in test [1] (setting [3]) is less than 4.60; at Human Calpain 1/NS1, more than 5.52; at Human Calpain 9/NS1, more than 5.52; in test [2], more than 5.00; at Human Calpain 2/NS1 it was more than 5.52.
Take `COc1cc(C(=O)NC(Cc2ccccc2)C(=O)C(N)=O)n(-c2ccccc2)n1` (stereo not drawn) [Compound 392, N-(4-amino-3,4-dioxo-1-phenylbutan-2-yl)-3-methoxy-1-phenyl-1H-pyrazole-5-carboxamide]: the pIC50 in test [1] (setting [3]) was 4.60 to 5.00; on Human Calpain 1/NS1, less than 5.00; on Human Calpain 9/NS1, less than 5.00; in test [2], more than 5.00; at Human Calpain 2/NS1 it was less than 5.00.
Take `NC(=O)C(=O)C(Cc1ccccc1)NC(=O)c1nsnc1-c1ccncn1` (stereo not drawn) [Compound 374, N-(4-amino-3,4-dioxo-1-phenylbutan-2-yl)-4-(pyrimidin-4-yl)-1,2,5-thiadiazole-3-carboxamide]: the pIC50 in test [1] (setting [3]) was more than 5.00; at Human Calpain 1/NS1, more than 5.52; on Human Calpain 9/NS1, more than 5.52; in test [2], more than 5.00; at Human Calpain 2/NS1, more than 5.52.
On to `Cn1cc(C(=O)NC(Cc2ccccc2)C(=O)C(N)=O)c(-c2ccnn2C)n1` (stereo not drawn) [Compound 568, N-(4-amino-3,4-dioxo-1-phenylbutan-2-yl)-1,2′-dimethyl-1H,2′H-[3,3′-bipyrazole]-4-carboxamide], for which the pIC50 in test [1] (setting [3]) is less than 4.60; at Human Calpain 1/NS1, more than 5.52; on Human Calpain 9/NS1, more than 5.52; in test [2] it was more than 5.00; at Human Calpain 2/NS1, more than 5.52.
For `CC[C@@H](C)[C@H](NC(=O)c1cn(C)nc1-c1ccccc1)C(=O)C(N)=O` [Compound 333, N-((3S,4R)-1-amino-4-methyl-1,2-dioxohexan-3-yl)-1-methyl-3-phenyl-1H-pyrazole-4-carboxamide], the pIC50 is less than 4.60 in test [1] (setting [3]); more than 5.52 on Human Calpain 1/NS1; more than 5.52 on Human Calpain 9/NS1; less than 4.60 in test [2]; more than 5.52 at Human Calpain 2/NS1.
For `Cc1cc(C(=O)N[C@@H](Cc2ccccc2)C(=O)C(N)=O)n(-c2cccnc2)n1` [Compound 136, (S)—N-(4-amino-3,4-dioxo-1-phenylbutan-2-yl)-3-methyl-1-(pyridin-3-yl)-1H-pyrazole-5-carboxamide], the pIC50 in test [1] (setting [4]) was 4.60 to 5.00; on Human Calpain 1/NS1 (Column A) it was more than 5.52; at Human Calpain 9/NS1 (Column C), more than 5.52; in test [2] (Column E), 4.60 to 5.00; at Human Calpain 2/NS1 (Column B) it was more than 5.52.
On to `Cc1cc(C(=O)N[C@@H](Cc2ccccc2)C(=O)C(N)=O)n(-c2cccc(CNS(=O)(=O)c3ccccc3)c2)n1` [Compound 145, (S)—N-(4-amino-3,4-dioxo-1-phenylbutan-2-yl)-3-methyl-1-(3-(phenylsulfonamidomethyl)phenyl)-1H-pyrazole-5-carboxamide], for which the pIC50 was more than 5.00 in test [1] (setting [4]); more than 5.52 on Human Calpain 1/NS1 (Column A); more than 5.52 at Human Calpain 9/NS1 (Column C); more than 5.00 in test [2] (Column E); more than 5.52 at Human Calpain 2/NS1 (Column B).
